Patent US9951089B2, “Methods of treating a fatty acid amide hydrolase-mediated condition” (INFINITY PHARMACEUTICALS, INC., priority 2010, dated 2018)

Target: T1, human FAAH (Homo sapiens, UniProt O00519)
T1 construct: The clone was in an ORIGENE® pCMV6-XL5 with an insert size of ˜2.2 kb
T1 sequence (O00519 50-579 limits assumed): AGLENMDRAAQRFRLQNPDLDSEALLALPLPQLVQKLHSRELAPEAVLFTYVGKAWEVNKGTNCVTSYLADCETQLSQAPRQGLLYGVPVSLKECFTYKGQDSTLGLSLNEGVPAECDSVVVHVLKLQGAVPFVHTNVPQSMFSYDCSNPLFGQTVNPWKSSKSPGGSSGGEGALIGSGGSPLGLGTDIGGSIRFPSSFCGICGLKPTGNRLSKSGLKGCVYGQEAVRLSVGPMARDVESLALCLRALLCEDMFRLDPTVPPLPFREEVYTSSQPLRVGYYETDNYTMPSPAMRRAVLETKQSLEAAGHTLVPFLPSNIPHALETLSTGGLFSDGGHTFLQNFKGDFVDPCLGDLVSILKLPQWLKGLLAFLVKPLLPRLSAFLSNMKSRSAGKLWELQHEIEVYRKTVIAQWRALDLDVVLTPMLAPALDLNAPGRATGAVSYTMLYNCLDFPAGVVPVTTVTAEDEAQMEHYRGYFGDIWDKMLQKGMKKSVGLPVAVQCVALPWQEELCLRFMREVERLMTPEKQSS
Assay: Ki determination, human FAAH (AMC-arachidonoyl amide hydrolysis, fluorescence end point)
Format: biochemical
Details: hFAAH 108 μg/mL, substrate 20 μM, 30 min preincubation, 4 hours at room temperature
Excerpt: A human FAAH (hFAAH) cDNA clone was purchased from Origen (Catalog #TC 119221, Accession #NM_001441.1). The clone was in an ORIGENE® pCMV6-XL5 with an insert size of ˜2.2 kb. Sequencing of the clone indicated a conservative mutation of K48R. This point mutation is possibly an allelic difference, and is far from the active site and unlikely to effect the activity. This plasmid was amplified in E. coli and isolated by precipitation. […]
Frozen cell pellets were thawed on ice and resuspended in: 12.5 mM HEPES (pH 8.0), 100 mM NaCl, and 1 mM EDTA at a ratio of 25 mL per gram of cells. […] Total protein concentrations were determined using a Bio-Rad Protein Assay (Protein Assay Dye Reagent Concentrate, cat#500-0006) ref. 5. […]
The Ki of a test compound was determined for rat and human FAAH by measuring the dose dependent inhibition of AMC-Arachidonoyl amide hydrolysis as an end point read. Assays were carried out in Corning COSTAR® 384 well flat black bottom microtiter plates (Catalog #3654) and monitored in an Envision 2100 multilabel plate reader (Perkin Elmer-Wallac), with a 355 nm (40 nm band pass) excitation filter and 460 nm (25 nm bandpass) emission filter. […]

Ki: 0.0141 µM
SMILES: OB(O)c1ccc(-c2ccc(B(O)O)c(F)c2)cc1F [IMP-4]
